Where no end group is shown, it is not given here.
What was measured:
[1] = system: CCR5-1like; assay: BRET CAMYEL Gαi signaling via chimeric receptor M1-CCR5-1like; format: cell-based, human; details: n = 3
Description: To finally determine if the lack of acidic amino acids in the CCR5 N-terminus can explain the dependency of this receptor on O-glycosylation for effective ligand interaction, we constructed a CCR5 receptor chimera, where the most acidic N-terminal region of CCR1 was inserted into the CCR5 N-terminus, creating the chimeric receptor CCR5-1like (Figure 7).
Figure 7 Receptor N-termini representing CCR1, CCR5, and the chimeric CCR5-1like. The CCR1 N-terminus contains a lot of acidic amino acids (outlined in red) in the form of aspartic acid (D) and glutamic acid (E), whereas CCR5 only contains a few. The chimeric receptor CCR5-1like that contains part of the CCR1 receptor N-terminus (ETTTDYDE) resembles CCR1 with regard to acidic amino acid content and spacing, but they are not the same.
BRET measurements of Gαi signaling and β-arrestin recruitment: Cells were seeded in 6-well plates (500,000 cells/well) and transiently transfected the following day. For BRET measurements of Gαi signaling, cells were transfected with vectors encoding the human chemokine receptors as indicated (160 ng/well) and the CAMYEL sensor (cAMP sensor, YFP-Epac-RLuc) (840 ng/well) using Lipofectamine (6 µL/well). Briefly, DNA was dissolved in 125 µL OPTI-MEM and Lipofectamine was dissolved in 125 µL OPTI-MEM. The DNA and Lipofectamine solutions were combined into a transfection mixture. The transfection mixture was added dropwise to cells incubated in OPTI-MEM (1 mL/well). Transfections were terminated after 5 h by adding 1 mL of fresh culture medium on top of the OPTI-MEM. The following day the cells were loosened from the plates in PBS with 5 mM glucose and subsequently aliquoted in white 96-well iso plates (~25,000 cells/well). When using C21TP variants and defense peptides (hBD2 and histatin), these were added to a final concentration of 10 μM/well, while an equal amount of PBS was added to control cells. The bioluminescence substrate coelenterazine was added to a final conc. of 5 µM. After 10 min, varying ligand concentrations were added. For BRET measurements of Gαi signaling, forskolin was added 5 min after the addition of the ligand, to a final conc. of 5 µM. The plates were kept in the dark at all times. A Perkin Elmer Envision machine was used for measuring the emission signals at 530 and 480 nm. The BRET signal is determined as the ratio eYFP (530 nm)/Rluc (480 nm).
BRET principle with CAMYEL: For quantification of signaling initiated immediately downstream of receptor activation, we used the cAMP binding CAMYEL sensor to perform bioluminescence resonance energy transfer (BRET) based assays. In this assay we measure changes in intracellular cAMP levels in response to receptor activation. Activation of chemokine receptors lead to a decrease in cAMP through inhibition of adenylate cyclase (AC). In the current setup we initially add forskolin that stimulates AC directly to induce an increase in intracellular cAMP, and we then measure the ability of a ligand (chemokine) to counteract the forskolin-induced increase in cAMP. The cAMP sensor (CAMYEL cAMP sensor, YFP-Epac-RLuc) carries the donor Renilla luciferase (Rluc) and the acceptor YFP. Coelenterazine is a substrate for Rluc that will emit light at around 475 nm upon enzymatic cleavage catalyzed by Rluc. When Rluc and YFP are in close proximity, the energy from the emitted light from coelenterazine can be transferred to YFP, resulting in an excitation of YFP, leading to a BRET signal around 525 nm. […]

[2] = target: fully sulfated version of the CCR1 N-terminal peptide; parameters: method as in PMID 30567735; details: read-out: affinity for the fully sulfated version of the CCR1 N-terminal peptide; cited from earlier work
[3] = system: peptides corresponding to the CCR5 receptor N-terminus; details: cited from earlier work
Description: CCR5, in contrast to CCR1, has an N-terminus that is sparse in acidic amino acids but has multiple tyrosine sulfation sites as well as O-glycosylation sites, that might increase the negative charge of the receptor N-terminus through post-translational modifications. CCL5 affinity towards peptides corresponding to the CCR5 receptor N-terminus increases by ≥100-fold if the peptides are sulfated on Y10 and Y14 [30], and the same tyrosine sulfation is needed for HIV1env protein binding and viral entry.

[4] = target: naked CCR1 N-terminus (Homo sapiens, UniProt P32246); assay: Fluorescence polarization binding to FAM-labeled CCR1 N-terminal peptide; details: FAM probe 250 nM, FP buffer PBS:MilliQ 1:3, peptide 12.21 nM to 100 µM, n = 3, read-out: dissociation constant (Kd) for CCR1 N-terminal peptide
Sequence of naked CCR1 N-terminus (P32246 with tags, fused parts or gaps limits assumed): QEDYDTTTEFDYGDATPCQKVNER
Procedure: (§1) Fluorescence polarization (FP) assay: The carboxyfluorescein (FAM)-labeled peptides representing the CCR1 and CCR5 N-termini functioned as the probes for quantifying the interaction between the receptor N-terminus and C21TP^81-111. The probe was diluted in FP buffer (1:3, PBS:MilliQ) and 10 µL was added to a final concentration of 250 nM per well in a black 384-well plate (Corning). The C21TP^81-111 peptide (2 mM) was diluted using a two-fold dilution series; 30 µL of the peptide was added to each well to final concentrations ranging from 12.21 nM to 100 µM. Blanks containing 10 µL probe and 30 µL FP buffer were included. The plate was spun down at 1000 rpm for 1 min and the FP signal was measured on a Flex station using SoftMax Pro software 7.0. Each experiment was conducted in triplicate. The binding curves were generated by plotting the FP signal, expressed as millipolarization units (mP), against C21TP^81-111 concentration. The dissociation constant (Kd) value was calculated using GraphPad Prism 9.
(§2) Probes: • CCR1: (5,6-FAM)-[…], • CCR5: (5,6-FAM)-ADYQVSSPIYDINYYTSEP.

[5] = system: naked CCR5 N-terminus; assay: Fluorescence polarization binding to FAM-labeled CCR5 N-terminal peptide; parameters: species or system human
Procedure: as §1, §2

[6] = HEK293 WT, DeltaSia and sC cells, 10 µM peptide

Substance	Gαi signaling via M1-CCR5-1like in DeltaSia and sC cells compared to WT cells ([1]; HEK293 DeltaSia and sC)	Kd [2] [nM]	increase of affinity towards CCR5 N-terminus peptides if sulfated on Y10 and Y14 [3] [fold]	boosting of CCL3 signaling via M1-CCR5-1like [1, 6]	boosting of CCL8 signaling via M1-CCR5-1like [1, 6]	Kd [4] [nM]	binding to the naked CCR5 N-terminus [5]
CCL5: human chemokine from Peprotech, overall basic	persists in DeltaSia and sC to almost the same high level as observed in WT cells	100	≥ 100	–	–	–	–
RKDRGASKTGKKGKGSKGCKRTERSQTPKGP [C21TP^81-111]	–	–	–	absent	absent	~2890	no such binding is observed
